# Measured values taken from article PMC6520937 (Viruses, 2019).
# Where “and” joins values, the source holds several entries; their conditions need not be identical. Equal values may be shown once. Read-outs that look alike come from different tables or passages of the source.
# Legend:
# SFTSV [1] = details: read-out: IC50 against SFTSV; cited from earlier work
# SFTSV [2] = assay: microbe, parasite or virus in culture; format: cell-based; details: for IC50: Severe fever with thrombocytopenia syndrome virus
# in vitro = details: African green monkey
# SFTSV [3] = assay: microbe, parasite or virus in culture; format: cell-based
# SFTSV [4] = format: cell-based, Severe fever with thrombocytopenia syndrome virus; details: pH 5
# SFTSV [5] = format: cell-based, Severe fever with thrombocytopenia syndrome virus
# SFTSV [6] = format: cell-based, Severe fever with thrombocytopenia syndrome virus; remark: listed apart in the source
# SFTSV [7] = format: cell-based, Severe fever with thrombocytopenia syndrome virus; remark: listed apart in the source
# SFTSV [8] = format: cell-based, Severe fever with thrombocytopenia syndrome virus; remark: listed apart in the source
SMILES,IC50 (SFTSV [1]),IC99 (SFTSV [2]),Selectivity Index (CC50/IC50) (SFTSV [2]),IC50 (SFTSV [2]),CC50 (in vitro),other results
Nc1ccn([C@@H]2O[C@H](CO)[C@@H](O)[C@H]2F)c(=O)n1 [2′-fluoro-2′-deoxycytidine],3.7 µM,,,,,
"Oc1c(Br)cc(Br)c2cccnc12 [Broxyquinoline, broxyquinoline]",,16.3 ± 4.3 µM,6.3,5.8 ± 1.3 µM,36.4 ± 5.5 µM,
"CC1=NN(c2ccc(C)c(C)c2)C(=O)/C1=N\Nc1cccc(-c2cccc(C(=O)O)c2)c1O [Eltrombopag, eltrombopag]",,10.3 ± 3.4 µM,4.5,4.1 ± 0.2 µM,18.4 ± 0.2 µM,
"Oc1c(Cl)cc(Cl)c(Cl)c1Cc1c(O)c(Cl)cc(Cl)c1Cl [Hexachlorophene, hexachlorophene]",,7.5 ± 1.2 µM,18.7,1.3 ± 0.3 µM,24.3 ± 3.2 µM,"plaque reduction (SFTSV [3]): 100%; IC50 (SFTSV [3]; Severe fever with thrombocytopenia syndrome virus, Vero, read-out: IC50, plaque reduction assay): 2.6 ± 0.14 µM; syncytium formation in SFTSV-infected cells (SFTSV [4]): dramatically inhibited; IC50 (SFTSV [2]; read-out: IC50 against SFTSV): 1.3 to 2.6 µM; inhibitory activity on virus attachment, cells pretreated with drug (SFTSV [5]): no significant; intracellular viral RNA load vs DMSO, drug co-mixed with SFTSV (SFTSV [6]): Significantly lower viral RNA load; virus infectivity after pre-incubation of SFTSV with drug (SFTSV [7]): not significantly"
"CNC(=O)c1cc(Oc2ccc(NC(=O)Nc3ccc(Cl)c(C(F)(F)F)c3)c(F)c2)ccn1 [Regorafenib, regorafenib]",,11.3 ± 0.5 µM,7.0,4.5 ± 0.5 µM,31.3 ± 0.5 µM,
"Oc1cc(Cl)ccc1Oc1ccc(Cl)cc1Cl [Triclosan, triclosan]",,8.5 ± 2.1 µM,5.5,3.2 ± 0.4 µM,17.7 ± 2.9 µM,
CCN(CC)Cc1cc(Nc2ccnc3cc(Cl)ccc23)ccc1O [amodiaquine],19.1 µM,,,,,
O=C(O)/C=C/c1ccc(O)c(O)c1 [caffeic acid],180 µM,,,,,
NC(=O)c1nc(F)c[nH]c1=O [favipiravir],25 µM,,,,,"difference in SFTSV RNA load between drug-treated and DMSO-treated groups (SFTSV [2]): approximately 4 log10; fold read-out between drug-treated and DMSO-treated groups by ELISA (SFTSV [8]): > 10 fold and > 15 fold; intracellular viral RNA load vs DMSO, drug co-mixed with SFTSV (SFTSV [6]): no statistically significant difference"
NC(=O)c1ncn([C@@H]2O[C@H](CO)[C@@H](O)[C@H]2O)n1 [ribavirin],40.1 µM,,,,,
